# From article PMC6804229, “Cytotoxic Xanthones from Hypericum stellatum, an Ethnomedicine in Southwest China” (Molecules, 2019)
# Where two headings read alike, the source gives them in different places.
# Assays:
# SMMC-7721 [1] = assay: MTS cytotoxicity assay, SMMC-7721
# Procedure: (§1) The isolated compounds were tested in vitro for their cytotoxicity to five human liver carcinoma cell lines (SMMC-7721, Huh-7, HepG2, SK-HEP-1, PLC/PRF/5) and the immortalized noncancerous human liver cell (LO2), in a 3-(4,5-dimethylthiazol-2-yl)-5(3-carboxymethoxyphenyl)2-(4-sulfopheny)-2H-tetrazolium (MTS; Promega, Beijing, China) assay [31]. In general, cells in the log phase of their cycle were seeded in 96-well plates (4000–5000 cells/well, NEST Biotechnology, Wuxi, China) in a 100-μL volume. After 12 h of incubation at 37 °C, each test compound was added. The cancer cell lines were exposed to the test compounds at five concentrations (0.064, 0.32, 1.6, 8, and 40 μM) in triplicate with cisplatin (Meilunbio, CAS No. 15663-27-1) and Taxol (Meilunbio, CAS No. 33069-62-4) as the positive control. After incubation for 48 h at 37 °C, 20 μL of MTS solution and 100 μL DMEM were added into the well. The incubation continued for another 1–4 h.
# HepG2 [2] = assay: MTS cytotoxicity assay, HepG2
# Procedure: as §1
# LO2 [3] = assay: cells; details: Homo sapiens, L02, 48 h, read-out: IC50 ± SD
# From the text: (§2) Considering its purported medicinal value for the treatment of liver disease, we tested the cytotoxic activities of ten xanthones isolated from H. stellatum against five human liver carcinoma cell lines (SMMC-7721, Huh-7, HepG2, SK-HEP-1, PLC/PRF/5), as well as the immortalized non-cancerous human liver cell (LO2) by the MTS method, in vitro, with cisplatin (CAS No. 15663-27-1, Meilunbio, Dalian, China) and Taxol (CAS No. 33069-62-4, Meilunbio, Dalian, China) as positive controls.
# as §1
# PLC/PRF/5 [4] = assay: MTS cytotoxicity assay, PLC/PRF/5
# Procedure: as §1
# SK-HEP-1 [5] = assay: MTS cytotoxicity assay, SK-HEP-1
# Procedure: as §1
# Huh-7 [6] = assay: MTS cytotoxicity assay, Huh-7
# Procedure: as §1
# [7] = tested on: five human liver carcinoma cell lines; assay: cells; type: cell-based
# Procedure: The incubation continued for another 1–4 h.
# HepG2 [8] = tested on: HepG2
# Procedure: as §1
# SMMC-7721 [9] = tested on: SMMC-7721
# Procedure: as §1
# SK-HEP-1 [10] = tested on: SK-HEP-1
# Procedure: as §1
# LO2 [11] = tested on: LO2
# From the text: as §2, §1
# PLC/PRF/5 [12] = tested on: PLC/PRF/5
# Procedure: as §1
# Huh-7 [13] = tested on: Huh-7
# Procedure: as §1
# PKC = tested on: PKC; parameters: method as in PMID 26245668; details: synthesized isojacareubin; cited from earlier work
# [14] = Homo sapiens, SMMC-7721, 48 h, read-out: IC50 ± SD
# [15] = Homo sapiens, SMMC-7721, read-out: cytotoxic activity (class)
# [16] = Homo sapiens, HepG2, 48 h, read-out: IC50 ± SD
# [17] = Homo sapiens, PLC-PRF-5, 48 h, read-out: IC50 ± SD
# [18] = Homo sapiens, SK-HEP1, 48 h, read-out: IC50 ± SD
# [19] = Homo sapiens, SK-HEP1, read-out: cytotoxic activity (class)
# [20] = Homo sapiens, Huh-7, 48 h, read-out: IC50 ± SD
# [21] = Homo sapiens, HepG2, read-out: cytotoxic activity (class)
# [22] = Homo sapiens, PLC-PRF-5, read-out: cytotoxic activity (class)
# [23] = Homo sapiens, Huh-7, read-out: cytotoxic activity (class)
# [24] = range over five human liver carcinoma cell lines, read-out: IC50 value range
# [25] = read-out: IC50 ± SD, SMMC-7721, MTS, 48 h, mean of three independent experiments
# [26] = read-out: IC50 ± SD, HepG2, MTS, 48 h, mean of three independent experiments
# [27] = read-out: IC50 ± SD, PLC/PRF/5, MTS, 48 h, mean of three independent experiments
# [28] = read-out: IC50 ± SD, SK-HEP-1, MTS, 48 h, mean of three independent experiments
# [29] = read-out: IC50 ± SD, LO2 human normal liver cell line, MTS, 48 h, mean of three independent experiments
# [30] = read-out: IC50 ± SD, Huh-7, MTS, 48 h, mean of three independent experiments
Compound,IC50 (SMMC-7721 [1]; [14]) [µM],IC50 (HepG2 [2]; [16]) [µM],IC50 (LO2 [3]) [µM],IC50 (PLC/PRF/5 [4]; [17]) [µM],IC50 (SK-HEP-1 [5]; [18]) [µM],IC50 (Huh-7 [6]; [20]) [µM],IC50 (HepG2 [2]; [21]) [µM],further results
"COc1cc2oc3cc(O)cc(O)c3c(=O)c2cc1O [Compound 7, 1,3,7-trihydroxy-6-methoxyxanthone]",28.2 ± 0.89,> 40,12.1 ± 0.14,> 40,37.1 ± 0.97,> 40,,IC50 (SMMC-7721 [1]; [15]): 10 to 40 µM; IC50 (SK-HEP-1 [5]; [19]): 10 to 40 µM
"C=C(C)[C@@H]1Cc2c(cc(O)c3c(=O)c4ccc(O)c(O)c4oc23)OC1C=C(C)C (some centres unmarked) [Compound 9, Hypxanthone B]",8.26 ± 0.57,11.93 ± 0.1,> 40,30.8 ± 0.38,> 40,25.8 ± 2.04,10 to 40,"IC50 ([7]; Homo sapiens, read-out: cytotoxicity (class)): 10 to 40 µM; IC50 (PLC/PRF/5 [4]; [22]): 10 to 40 µM; IC50 (Huh-7 [6]; [23]): 10 to 40 µM"
isojacareubin [Compound 6],,,,,,,,"IC50 [7, 24]: 1.41 to 11.8 µM; IC50 (SMMC-7721 [1]; [25]): 1.41 ± 0.03 µM; IC50 (HepG2 [2]; [26]): 2.4 ± 0.02 µM; IC50 (HepG2 [8]): < 10 µM; IC50 (SMMC-7721 [9]): < 10 µM; IC50 (PLC/PRF/5 [4]; [27]): 11.8 ± 0.56 µM; IC50 (SK-HEP-1 [5]; [28]): 9.2 ± 0.21 µM; IC50 (SK-HEP-1 [10]): < 10 µM; IC50 (LO2 [11]): < 10 µM; IC50 (LO2 [11]; [29]): 2.03 ± 0.04 µM; IC50 (PLC/PRF/5 [12]): 10 to 40 µM; IC50 (Huh-7 [13]): < 10 µM; IC50 (Huh-7 [6]; [30]): 9.09 ± 0.38 µM; inhibition of PKC (PKC): potent inhibitor"
"O=c1c2cc(O)ccc2oc2cc(O)cc(O)c12 [Compound 4, 1,3,7-trihydroxyxanthone]",> 40,22.6 ± 1.43,> 40,> 40,> 40,> 40,10 to 40,
"COc1cc2oc3ccccc3c(=O)c2cc1O [Compound 1, 2-hydroxy-3-methoxyxanthone]",> 40,10.2 ± 0.12,14.5 ± 0.95,> 40,> 40,> 40,10 to 40,
"C=C(C)C(CC=C(C)C)Cc1c(O)cc(O)c2c(=O)c3ccc(O)c(O)c3oc12 (centres unmarked) [Compound 10, calycinoxanthon D]",6.27 ± 0.16,21.33 ± 0.16,12.2 ± 0.25,24.9 ± 0.46,31.1 ± 2.67,16.6 ± 0.24,10 to 40,IC50 (PLC/PRF/5 [4]; [22]): 10 to 40 µM; IC50 (SK-HEP-1 [5]; [19]): 10 to 40 µM; IC50 (Huh-7 [6]; [23]): 10 to 40 µM
"COc1cc(O)cc2oc3cc(O)c(O)cc3c(=O)c12 [Compound 5, 3,6,7-trihydroxy-1-methoxyxanthone]",> 40,> 40,,> 40,> 40,> 40,,
"CC(=O)O[C@H]1C(=O)[C@@]2(C)[C@H]([C@H](OC(=O)c3ccccc3)[C@]3(O)C[C@H](OC(=O)[C@H](O)[C@@H](NC(=O)c4ccccc4)c4ccccc4)C(C)=C1C3(C)C)[C@]1(OC(C)=O)CO[C@@H]1C[C@@H]2O [Taxol, reference compound]",0.18 ± 0.03,< 0.01,< 0.01,< 0.01,< 0.01,0.11 ± 0.011,,
"N.N.[Cl][Pt][Cl] [Cisplatin, cisplatin, reference compound]",,,,,,,,"IC50 [7, 24]: 4.47 to 20.6 µM; IC50 (SMMC-7721 [1]; [25]): 4.47 ± 0.27 µM; IC50 (HepG2 [2]; [26]): 10.3 ± 0.5 µM; IC50 (PLC/PRF/5 [4]; [27]): 10.7 ± 0.8 µM; IC50 (SK-HEP-1 [5]; [28]): 20.6 ± 1.03 µM; IC50 (LO2 [11]; [29]): 13.9 ± 0.87 µM; IC50 (Huh-7 [6]; [30]): 16 ± 0.95 µM"
"O=c1c2c(O)cccc2oc2cc(O)cc(O)c12 [Compound 2, 1,3,8-trihydroxyxanthone]",15.2 ± 0.27,> 40,> 40,> 40,> 40,> 40,,IC50 (SMMC-7721 [1]; [15]): 10 to 40 µM
"O=c1c2cc(O)c(O)cc2oc2cc(O)cc(O)c12 [Compound 3, 1,3,6,7-tetrahydroxylxanthone]",> 40,> 40,,> 40,> 40,> 40,,
